# Data: ChEMBL document CHEMBL3124857, “Encoded library technology as a source of hits for the discovery and lead optimization of a potent and selective class of bactericidal direct inhibitors of Mycobacterium tuberculosis InhA” (J Med Chem, 2014)
# Activity calls are given as the source filed them. The calls are words filed in the database; no cut-off is given here.
# What was measured:
# [1] = system: Mycobacterium tuberculosis; test: Antitubercular activity against wild type Mycobacterium tuberculosis H37Rv ATCC 25618 assessed as growth inhibition after 6 days by resazurin dye-based assay; type: functional; conditions: for MIC90: H37Rv ATCC 25618, 144 h
# [2] = target: T1, Enoyl-[acyl-carrier-protein] reductase [NADH] (Mycobacterium tuberculosis, UniProt P9WGR1); test: Inhibition of Mycobacterium tuberculosis full length biotinylated InhA (270 amino acids) using DDCoA as substrate assessed as NADH oxidation by fluorimetric analysis
# T1 sequence (P9WGR1 whole entry): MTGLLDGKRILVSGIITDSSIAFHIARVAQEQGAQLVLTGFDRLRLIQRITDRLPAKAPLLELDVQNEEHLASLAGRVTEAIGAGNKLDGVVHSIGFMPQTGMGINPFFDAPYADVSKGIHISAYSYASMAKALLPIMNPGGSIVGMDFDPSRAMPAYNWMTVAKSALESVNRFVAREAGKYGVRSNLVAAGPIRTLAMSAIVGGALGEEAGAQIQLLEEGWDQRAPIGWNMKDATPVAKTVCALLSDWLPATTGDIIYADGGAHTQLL
# [3] = Kinetic solubility of the compound after 1 hr by CLND assay; type: physicochemical; conditions: 1 h
# [4] = Drug degradation assessed as formation of 2-((2S,4R)-1-(benzofuran-3-carbonyl)-4-(3-ethyl-1-methyl-1H-pyrazole-5-carboxamido)pyrrolidine-2-carboxamido)acetic acid; type: physicochemical
SMILES,growth inhibition (GI) [1],MIC90 [1] [µM],IC50 [2] [nM],Kinetic_solubility [3],Stability [4]
CCc1cc(C(=O)N[C@@H]2C[C@@H](C(=O)NCC(=O)N(C)C)N(C(=O)c3coc4ccccc34)C2)n(C)n1,Active,–,–,–,–
CCNC[C@@H]1C[C@@H](NC(=O)c2cc(CC)nn2C)CN1C(=O)c1coc2ccccc12,–,> 31,440,–,–
CCc1cc(C(=O)N[C@@H]2C[C@@H](C(=O)NCC3OB(O)c4ccccc43)N(C(=O)c3coc4ccccc34)C2)n(C)n1 (some centres undefined),–,2,35,–,–
CCc1cc(C(=O)N[C@@H]2C[C@@H](C(=O)NCc3ccccc3)N(C(=O)c3coc4ccccc34)C2)n(C)n1,–,4,41,–,–
CCc1cc(C(=O)N[C@@H]2C[C@@H](C(=O)Nc3cnn(CC)n3)N(C(=O)c3coc4ccccc34)C2)n(C)n1,–,4,3,–,–
CCc1cc(C(=O)N[C@@H]2C[C@@H](C(=O)NCCc3ccc(F)cc3)N(C(=O)c3coc4ccccc34)C2)n(C)n1,–,1,6,–,–
CCc1cc(C(=O)N[C@@H]2CCN(C(=O)c3coc4ccccc34)C2)n(C)n1,–,> 31,120,–,–
CCc1cc(C(=O)N[C@@H]2C[C@@H](C(=O)N(CC)CC)N(C(=O)c3coc4ccccc34)C2)n(C)n1,–,> 31,948,–,–
CCc1cc(C(=O)N[C@@H]2C[C@@H](C(=O)O)N(C(=O)c3coc4ccccc34)C2)n(C)n1,–,–,1290,–,–
CCc1cc(C(=O)N[C@@H]2C[C@@H](C(=O)NCc3ccc(OC(F)(F)F)cc3)N(C(=O)c3coc4ccccc34)C2)n(C)n1,–,23.4,5,–,–
CCc1cc(C(=O)N[C@@H]2C[C@@H](C(=O)Nc3ccn(Cc4c(F)cccc4F)n3)N(C(=O)c3coc4ccccc34)C2)n(C)n1,–,0.7,4,–,–
CCc1cc(C(=O)N[C@@H]2C[C@@H](C(=O)NCC(F)(F)F)N(C(=O)c3coc4ccccc34)C2)n(C)n1,–,4,46,–,–
CCc1cc(C(=O)N[C@@H]2C[C@@H](C(=O)Nc3nc(C)co3)N(C(=O)c3coc4ccccc34)C2)n(C)n1,–,8,9,–,–
CCc1cc(C(=O)N[C@@H]2C[C@@H](C(=O)NCC(=O)OC)N(C(=O)c3coc4ccccc34)C2)n(Cc2ccccc2)n1,–,> 31,> 1000,–,–
CCc1cc(C(=O)N[C@@H]2C[C@@H](C(=O)Nc3ccc4c(c3)B(O)OC4)N(C(=O)c3coc4ccccc34)C2)n(C)n1,–,4,26,–,–
CCc1cc(C(=O)N[C@@H]2C[C@@H](C(=O)NC3CCOC3=O)N(C(=O)c3coc4ccccc34)C2)n(C)n1 (some centres undefined),–,> 31,80,–,–
CCNC(=O)[C@@H]1C[C@@H](NC(=O)c2cc(CC)nn2C)CN1C(=O)c1ccc2occc2c1,–,–,74,–,–
CCc1cc(C(=O)N[C@@H]2C[C@@H](C(=O)NCCOC)N(C(=O)c3coc4ccccc34)C2)n(C)n1,–,4,14,–,–
CCc1cc(C(=O)N[C@@H]2C[C@@H](C(=O)NCC(N)=O)N(C(=O)c3coc4ccccc34)C2)n(C)n1,Active,–,–,–,–

SMILES,growth inhibition (GI) [1],MIC90 [1] [µM],IC50 [2] [nM],Kinetic_solubility [3],Stability [4]
CCc1cc(C(=O)N[C@@H]2C[C@@H](C(=O)NCCc3ccccn3)N(C(=O)c3coc4ccccc34)C2)n(C)n1,–,1,25,–,–
CCc1cc(C(=O)N[C@@H]2C[C@@H](C(=O)NCc3nc(C)no3)N(C(=O)c3coc4ccccc34)C2)n(C)n1,–,2,7,–,–
CCc1cc(C(=O)N[C@@H]2C[C@@H](C(=O)NCC(=O)NC)N(C(=O)c3coc4ccccc34)C2)n(C)n1,Active,–,–,–,–
CCc1cc(C(=O)N[C@@H]2C[C@@H](C(=O)NCCNC(C)=O)N(C(=O)c3coc4ccccc34)C2)n(C)n1,–,4,20,–,–
CCc1cc(C(=O)N[C@@H]2C[C@@H](C(=O)NCc3nccs3)N(C(=O)c3coc4ccccc34)C2)n(C)n1,–,2,17,–,–
CCc1cc(C(=O)N[C@@H]2C[C@@H](C(=O)Nc3ccn(Cc4ccc(F)cc4)n3)N(C(=O)c3coc4ccccc34)C2)n(C)n1,–,4,5,–,–
CCc1cc(C(=O)N[C@@H]2C[C@@H](C(N)=O)N(C(=O)c3coc4ccccc34)C2)n(C)n1,–,3,12,–,–
CCc1cc(C(=O)N[C@@H]2C[C@@H](C(=O)NCc3ccc(C)o3)N(C(=O)c3coc4ccccc34)C2)n(C)n1,–,1.5,21,–,–
CCc1cc(C(=O)N[C@@H]2C[C@@H](C(=O)NCCc3ccccn3)N(C(=O)c3coc4ccccc34)C2)n(CC)n1,–,0.5,4,–,–
CCc1cc(C(=O)N[C@@H]2C[C@@H](C(=O)NCC3CCCO3)N(C(=O)c3coc4ccccc34)C2)n(C)n1 (some centres undefined),–,4,45,–,–
CCc1cc(C(=O)N[C@@H]2C[C@@H](C(=O)NCC(=O)OC)N(C(=O)c3coc4ccccc34)C2)n(C)n1,–,0.5,5,soluble,Unstable
CCc1cc(C(=O)N[C@@H]2C[C@@H](C(=O)Nc3ccccn3)N(C(=O)c3coc4ccccc34)C2)n(C)n1,–,4,11,–,–
CCc1cc(C(=O)N[C@@H]2C[C@@H](C(=O)NC3CCCC3)N(C(=O)c3coc4ccccc34)C2)n(C)n1,–,4,40,–,–
CCc1cc(C(=O)N[C@@H]2C[C@@H](C(=O)NCc3nc4ccccc4o3)N(C(=O)c3coc4ccccc34)C2)n(C)n1,–,0.5,3,–,–
CCc1cc(C(=O)N[C@@H]2C[C@@H](C(=O)NCc3ccn(CC)n3)N(C(=O)c3coc4ccccc34)C2)n(C)n1,–,4,32,–,–
CCCc1cc(C(=O)N[C@@H]2C[C@@H](C(=O)NCC(=O)OC)N(C(=O)c3coc4ccccc34)C2)n(C)n1,–,0.5,22,–,–
COC(=O)CNC(=O)[C@@H]1C[C@@H](NC(=O)c2cc(C3CC3)nn2C)CN1C(=O)c1coc2ccccc12,–,1,15,–,–
CCc1cc(C(=O)N[C@@H]2C[C@@H](C(=O)OC)N(C(=O)c3coc4ccccc34)C2)n(C)n1,–,–,215,–,–
CCc1cc(C(=O)N[C@@H]2C[C@@H](C(=O)NCc3ccc4c(c3)B(O)OC4)N(C(=O)c3coc4ccccc34)C2)n(CC)n1,–,0.2,2,–,–

SMILES,growth inhibition (GI) [1],MIC90 [1] [µM],IC50 [2] [nM],Kinetic_solubility [3],Stability [4]
CCCNC(=O)[C@@H]1C[C@@H](NC(=O)c2cc(CC)nn2C)CN1C(=O)c1coc2ccccc12,–,15.6,21,–,–
CCc1cc(C(=O)N[C@@H]2C[C@@H](C(=O)NCc3ccc(F)c(F)c3)N(C(=O)c3coc4ccccc34)C2)n(C)n1,–,2,9,–,–
CCc1cc(C(=O)N[C@@H]2C[C@@H](C(=O)NCc3ncco3)N(C(=O)c3coc4ccccc34)C2)n(C)n1,–,1,5,–,–
CCCn1nc(CC)cc1C(=O)N[C@@H]1C[C@@H](C(=O)NCC(=O)OC)N(C(=O)c2coc3ccccc23)C1,–,1,11,–,–
CCc1cc(C(=O)N[C@@H]2C[C@@H](C(=O)NCc3cnc(C)cn3)N(C(=O)c3coc4ccccc34)C2)n(C)n1,–,8,22,–,–
CCc1cc(C(=O)N[C@@H]2C[C@@H](C(=O)NCc3ccccn3)N(C(=O)c3coc4ccccc34)C2)n(CC)n1,–,0.7,2,–,–
CCc1cc(C(=O)N[C@@H]2C[C@@H](C(=O)NCCN(C)C)N(C(=O)c3coc4ccccc34)C2)n(C)n1,–,> 31,170,–,–
CCc1cc(C(=O)N[C@@H]2C[C@@H](C(=O)NCC(=O)OC)N(C(=O)c3coc4ccccc34)C2)n(CCO)n1,–,> 31,> 1000,–,–
CCc1cc(C(=O)N[C@@H]2C[C@@H](C(=O)N[C@H](CO)Cc3ccccc3)N(C(=O)c3coc4ccccc34)C2)n(C)n1,–,1,112,–,–
CCc1cc(C(=O)N[C@@H]2C[C@@H](C(=O)Nc3ccn(CC4CCCCC4)n3)N(C(=O)c3coc4ccccc34)C2)n(C)n1,–,> 31,> 1000,–,–
CCc1cc(C(=O)N[C@@H]2C[C@@H](C(=O)NCC(=O)OC)N(C(=O)c3coc4ccccc34)C2)n(CC)n1,–,0.05,3,–,–
CCc1cc(C(=O)N[C@@H]2C[C@@H](C(=O)NCc3nc(C)no3)N(C(=O)c3coc4ccccc34)C2)n(CC)n1,–,0.5,4,–,–
CCOC(=O)CCNC(=O)[C@@H]1C[C@@H](NC(=O)c2cc(CC)nn2C)CN1C(=O)c1coc2ccccc12,–,4,22,–,–
COC(=O)CNC(=O)[C@@H]1C[C@@H](NC(=O)c2cc(CC(C)C)nn2C)CN1C(=O)c1coc2ccccc12,–,> 31,> 1000,–,–
CCc1cc(C(=O)N[C@@H]2C[C@@H](C(=O)NCCO)N(C(=O)c3coc4ccccc34)C2)n(CC)n1,–,1,3,–,–
CCc1cc(C(=O)N[C@@H]2C[C@@H](C(=O)NCc3ccc(C(F)(F)F)cc3)N(C(=O)c3coc4ccccc34)C2)n(C)n1,–,16,42,–,–
CCc1cc(C(=O)N[C@@H]2C[C@@H](C(=O)Nc3cc(C)on3)N(C(=O)c3coc4ccccc34)C2)n(C)n1,–,16,18,–,–
CCNC(=O)[C@@H]1C[C@@H](NC(=O)c2cc(CC)nn2C)CN1C(=O)c1ccc2sccc2c1,–,–,121,–,–
CCc1cc(C(=O)N[C@@H]2C[C@@H](C(=O)Nc3ccn(C)n3)N(C(=O)c3coc4ccccc34)C2)n(C)n1,–,4,7,–,–
